# Test results published in article PMC5571211 (Scientific Reports, 2017).
# Columns and labels:
# human recombinant 5-LOX = biological target: T1, human recombinant 5-LOX (Homo sapiens, UniProt P09917); experiment: Activity assay of isolated human recombinant 5-LOX (cell-free); assay type: biochemical; conditions: cell-free assays, not further specified
# T1 construct: made in house; host or cells: E. coli BL21
# T1 sequence (P09917 1-674): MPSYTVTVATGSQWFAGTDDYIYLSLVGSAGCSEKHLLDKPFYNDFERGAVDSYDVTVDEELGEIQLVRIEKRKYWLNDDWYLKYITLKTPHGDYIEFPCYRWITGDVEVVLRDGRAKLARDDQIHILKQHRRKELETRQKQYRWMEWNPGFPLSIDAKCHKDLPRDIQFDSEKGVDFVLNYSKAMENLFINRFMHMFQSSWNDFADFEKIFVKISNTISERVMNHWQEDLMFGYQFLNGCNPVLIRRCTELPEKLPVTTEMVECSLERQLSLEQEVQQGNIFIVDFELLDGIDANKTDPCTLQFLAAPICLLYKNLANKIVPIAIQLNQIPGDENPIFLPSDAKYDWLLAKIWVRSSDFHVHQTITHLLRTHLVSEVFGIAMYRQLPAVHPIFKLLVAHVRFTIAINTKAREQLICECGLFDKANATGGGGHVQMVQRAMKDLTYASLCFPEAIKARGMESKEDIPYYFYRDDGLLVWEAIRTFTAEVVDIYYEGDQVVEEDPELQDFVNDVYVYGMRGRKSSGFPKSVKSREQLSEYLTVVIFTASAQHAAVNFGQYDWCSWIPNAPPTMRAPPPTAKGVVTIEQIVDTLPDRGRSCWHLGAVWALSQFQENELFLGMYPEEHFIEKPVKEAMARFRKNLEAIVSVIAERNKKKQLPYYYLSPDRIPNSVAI
# Description: To determine 5-LOX product formation, aliquots (0.5 µg purified 5-LOX in 1 mL PBS plus 1 mM EDTA) were pre-incubated with the test compounds or vehicle (0.1% DMSO) on ice for 15 min and then stimulated with 20 µM AA and CaCl2 (2 mM) for 10 min at 37 °C. The reaction was stopped with one volume of ice-cold methanol and 5-LOX products were analyzed by RP-HPLC as previously described[58]. Briefly, 530 µl acidified PBS and 200 ng of internal PGB1 standard were added and solid phase extraction using C18 RP-columns (100 mg, UCT, Bristol, PA, USA) was performed. After elution with methanol, samples were analyzed by RP-HPLC using a C-18 Radial-PAK column (Waters, Eschborn, Germany). Unless stated otherwise, 5-LOX products include all-trans-isomers of LTB4 and 5-HpETE as well as its corresponding alcohol 5-HETE.
# purified ovine COX-1 = biological target: T2, purified ovine COX-1 (Ovis aries, UniProt P05979); experiment: COX-1 activity, cell-free (12-HHT formation); assay type: biochemical; conditions: 10 µM
# T2 construct: purchased Cayman Chemical (Biomol, Hamburg, Germany)
# T2 sequence (P05979 25-600): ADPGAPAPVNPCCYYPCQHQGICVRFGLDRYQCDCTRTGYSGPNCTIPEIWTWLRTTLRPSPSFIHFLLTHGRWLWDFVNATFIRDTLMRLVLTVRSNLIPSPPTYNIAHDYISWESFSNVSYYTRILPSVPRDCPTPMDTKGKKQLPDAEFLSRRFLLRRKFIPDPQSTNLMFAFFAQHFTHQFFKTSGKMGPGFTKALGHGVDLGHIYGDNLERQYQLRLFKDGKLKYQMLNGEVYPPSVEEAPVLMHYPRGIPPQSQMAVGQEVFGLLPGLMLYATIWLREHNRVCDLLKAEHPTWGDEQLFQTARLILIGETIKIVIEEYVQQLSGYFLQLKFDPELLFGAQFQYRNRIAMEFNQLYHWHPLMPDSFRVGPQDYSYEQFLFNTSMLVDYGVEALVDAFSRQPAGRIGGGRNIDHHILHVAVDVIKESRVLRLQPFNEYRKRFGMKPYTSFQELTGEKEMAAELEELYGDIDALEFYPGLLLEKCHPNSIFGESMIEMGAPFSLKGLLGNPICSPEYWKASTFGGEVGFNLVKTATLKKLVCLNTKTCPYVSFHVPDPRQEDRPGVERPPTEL
# Description: COX activity was assayed by using purified ovine COX-1 and recombinant human COX-2, respectively. Enzymes were diluted in Tris buffer (100 mM, pH 8) supplemented with glutathione (5 mM), EDTA (100 µM) and hemoglobin (5 µM) to a final concentration of 50 U/mL (COX-1) or 20 U/mL (COX-2) and pre-incubated with test compounds or vehicle (0.1% DMSO) for 5 min at RT. After 30 sec at 37 °C, reactions were started with 5 µM AA (COX-1) or 2 µM AA (COX-2) and stopped after 5 min at 37 °C by addition of one volume of ice-cold methanol. Solid phase extraction was performed as described above after addition of 200 ng of internal PGB1 standard and COX product formation was determined by analysis of 12-HHT formation as reported before.
# [1] = system: HEK293 cells expressing 5-LOX and FLAP; experiment: 5-LOX product formation in HEK293 cells expressing 5-LOX and FLAP; assay type: cell-based; conditions: HEK293 expressing 5-LOX and FLAP, A23187 plus 3 µM AA
# Description: (§1) HEK293 cells were cultured in monolayers (37 °C, 5% CO2) in DMEM containing FCS (10%), penicillin (100 U/mL) and streptomycin (100 µg/mL). HEK293 cell lines stably expressing 5-LOX with or without FLAP were selected using geneticin (400 µg/mL) with or without hygromycin (200 µg/mL), respectively, as previously described. Transfection of HEK293 was performed using pcDNA3.1 plasmids and lipofectamine according to the manufacturer’s instructions (Invitrogen, Darmstadt, Germany).
# (§2) For analysis of 5-LOX product formation in HEK293 cells stably expressing 5-LOX with or without FLAP, cells were harvested by trypsinization, pelleted (1,200 rpm, 5 min, 4 °C) and resuspended in PGC buffer to a final concentration of 1 × 10^6 cells/mL. Aliquots were pre-incubated with test compounds or 0.1% DMSO for 15 min, respectively, and stimulated with 2.5 µM A23187 and 3 µM AA.
# LTC4S = biological target: T3, LTC4S (Homo sapiens, UniProt Q16873); experiment: LTC4S activity in microsomes of LTC4S-expressing HEK293 cells; assay type: biochemical; conditions: cell-free, up to 10 µM
# T3 construct: expressed in transfected cells; host or cells: HEK293 stably expressing LTC4S (geneticin selection), microsomal fraction
# T3 sequence (Q16873 1-150): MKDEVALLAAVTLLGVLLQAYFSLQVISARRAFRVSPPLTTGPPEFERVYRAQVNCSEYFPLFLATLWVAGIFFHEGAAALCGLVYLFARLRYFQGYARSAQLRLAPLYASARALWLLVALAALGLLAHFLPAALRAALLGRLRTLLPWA
# Description: LTC4S activity was assayed by using microsomes of HEK293 cells stably expressing LTC4S, as previously published. In brief, HEK293 expressing LTC4S were cultivated as described above and selected using geneticin (400 µg/mL). Isolation of microsomes was performed as described for mPGES-1 above and microsomes were diluted in potassium phosphate buffer (0.1 M, pH 7.4) with glutathione (5 mM) to a final concentration of 2.5 µg protein per mL. […] To determine enzyme activity, acidified PBS and d5-LTC4-methyl ester (5 ng) as internal standard were added prior solid phase extraction and LTC4-methyl ester formation was analyzed by UPLC-MS/MS as described.
# [2] = system: HEK293 cells expressing 5-LOX (deficient in FLAP); experiment: 5-LOX product formation in HEK293 cells expressing 5-LOX alone; assay type: cell-based; conditions: HEK293 expressing 5-LOX, A23187 plus 3 µM AA
# Description: as §1, §2
# monocytes = experiment: Acute cytotoxicity, MTT assay in monocytes; assay type: cell-based, human; conditions: 24 or 48 hrs; diflapolin 10 µM, staurosporine 3 µM
# Description: Acute cytotoxicity of the compounds was determined using freshly isolated monocytes. Cells (0.2 × 10^6) per sample were seeded in 100 µL buffer on 96-well plates and treated with the test compounds and appropriate controls for 24 or 48 hrs (37 °C, 5% CO2). After addition of MTT (5 mg/mL) for 2 h (37 °C, 5% CO2), cells were lysed by SDS treatment (10%, pH 4.5) for 16–20 hrs and formazan formation was determined by measurement of absorbance at 570 nm.
IC50 (human recombinant 5-LOX),SMILES,inhibition of COX-1 activity (purified ovine COX-1),inhibition of 5-LOX product formation [1],inhibition of LTC4S activity (LTC4S),inhibition of 5-LOX product formation [2],"viability of monocytes, MTT assay (monocytes)"
> 10 µM,"CC(C)c1ccc2c(c1)c(SC(C)(C)C)c(CC(C)(C)C(=O)O)n2Cc1ccc(Cl)cc1 [MK886, 3-[1-(4-chlorobenzyl)-3-t-butyl-thio-5-isopropylindol-2-yl]-2,2 - dimethylpropanoic acid]",–,–,–,–,–
–,"Cc1cc(OCc2nc3ccccc3s2)ccc1NC(=O)Nc1ccc(Cl)c(Cl)c1 [diflapolin, N-[4-(benzothiazol-2-ylmethoxy)-2-methylphenyl]-N′-(3,4-dichlorophenyl)urea]",did not significantly inhibit,strongly inhibited,failed to inhibit,hardly impaired,did not affect the viability
